From paper PMC5384001 (Scientific Reports, 2017)
Positions count from the first letter of the chain named. “And” between values parts separate entries of the source, which are not always exact repeats. Identical values can stand only once.

Columns and labels:
GluD2-Lc(Y543Q) = molecular target: T1, GluD2-Lc(Y543Q) (Rattus norvegicus, UniProt Q63226, A654T/Y543Q); assay: Two-electrode voltage clamp in Xenopus oocytes, inhibition of spontaneous currents; assay type: cell-based; settings: fraction of spontaneous current inhibited by saturating D-serine
T1 construct: the function of full-length receptors as well, we introduced them into the GluD2 lurcher mutant (GluD2-Lc); expressed in transfected cells; host or cells: Xenopus laevis oocytes injected with cRNA
T1 sequence (Q63226 24-1007 Y543Q/A654T): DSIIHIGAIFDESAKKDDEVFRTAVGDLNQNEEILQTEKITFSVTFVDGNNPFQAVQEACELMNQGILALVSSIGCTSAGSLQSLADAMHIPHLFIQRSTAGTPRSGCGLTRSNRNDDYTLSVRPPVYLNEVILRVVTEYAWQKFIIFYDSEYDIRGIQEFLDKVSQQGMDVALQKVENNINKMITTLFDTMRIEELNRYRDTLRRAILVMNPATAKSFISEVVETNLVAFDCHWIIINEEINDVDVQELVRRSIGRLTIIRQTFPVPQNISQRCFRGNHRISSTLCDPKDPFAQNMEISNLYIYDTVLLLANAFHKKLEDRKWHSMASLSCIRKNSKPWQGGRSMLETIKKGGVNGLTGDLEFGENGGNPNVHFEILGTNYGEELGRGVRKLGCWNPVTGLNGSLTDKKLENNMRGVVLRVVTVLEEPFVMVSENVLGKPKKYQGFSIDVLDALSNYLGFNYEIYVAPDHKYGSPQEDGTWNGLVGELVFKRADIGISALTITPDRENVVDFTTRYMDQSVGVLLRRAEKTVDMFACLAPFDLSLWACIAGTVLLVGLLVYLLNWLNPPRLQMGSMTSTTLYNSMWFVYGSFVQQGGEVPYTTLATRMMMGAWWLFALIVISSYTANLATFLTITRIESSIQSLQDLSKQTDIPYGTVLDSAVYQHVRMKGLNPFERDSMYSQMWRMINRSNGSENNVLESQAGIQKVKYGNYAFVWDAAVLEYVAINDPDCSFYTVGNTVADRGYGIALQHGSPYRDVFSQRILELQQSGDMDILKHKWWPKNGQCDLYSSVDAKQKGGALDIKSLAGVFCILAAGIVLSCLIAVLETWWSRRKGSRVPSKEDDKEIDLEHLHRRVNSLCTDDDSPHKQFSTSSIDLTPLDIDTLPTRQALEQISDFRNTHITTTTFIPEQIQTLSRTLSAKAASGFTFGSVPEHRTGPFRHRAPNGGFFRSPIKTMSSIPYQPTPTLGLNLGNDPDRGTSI
Text: (§1) All cDNAs for expression in Xenopus oocytes were cloned into the vector pSGEM[30]. Point mutants of GluD2-Lc were constructed by overlap extension PCR with mutagenic oligonucleotide primers. The GluD2-Lc-(H)GluN1 chimera was constructed by transferring the S1- and S2-encoding sequences from GluD2-LBD-(H)GluN1 to GluD2-Lc via overlap extension PCR using tail primers. The S1 and S2 sequences were transferred separately, yielding GluD2-Lc-(HS1)GluN1 and GluD2-Lc-(HS2)GluN1 constructs. GluD2-Lc-(H)GluN1 was then produced from these by another overlap extension PCR. Complementary RNA (cRNA) for injection into oocytes was synthesised from 1 μg of linearised template DNA with the mMESSAGE mMACHINE in vitro transcription kit (Ambion, Austin, TX, USA).
(§2) Oocytes were obtained by surgically removing parts of the ovaries from Xenopus laevis (Nasco, Fort Atkinson, WI, USA) anaesthetised with 1.5 g/L 3-aminobenzoic acid ethylester (Sigma, Taufkirchen, Germany). […] Oocytes were injected with 11 ng cRNA (10 ng of each cRNA for co-expression of GluN1 and GluN2A) using a nanoliter injector (WPI, Sarasota, FL, USA). Four days after cRNA injection, current responses were recorded under voltage clamp at –70 mV with a Turbo Tec-10CD amplifier (npi electronic, Tamm, Germany) controlled by Patchmaster software (HEKA, Lambrecht, Germany). Currents were filtered with a 20 Hz low-pass filter and then digitised with a sampling rate of 50 Hz. Recording electrodes were pulled from borosilicate glass (Hilgenberg, Malsfeld, Germany) with an L/M-3P-A vertical pipette puller (List-Medical), filled with 3 M KCl, and had resistances of 0.5–5 MΩ (voltage electrode) or 0.5–1.5 MΩ (current electrode). Recordings were performed in a 50 μL chamber under constant superfusion with extracellular solution at a flow rate of 3–5 mL/min. […] Finally, Ba-NFR and then NMDGR were applied again to check for reversibility.

GluD2-Lc-(HS1)GluN1 = molecular target: T2, GluD2-Lc-(HS1)GluN1 (Rattus norvegicus, UniProt Q63226, A654T/D542Y/S544G/Y543Q); assay: as above; assay type: cell-based; settings: fraction of spontaneous current inhibited by saturating D-serine
T2 construct: the function of full-length receptors as well, we introduced them into the GluD2 lurcher mutant (GluD2-Lc); expressed in transfected cells; host or cells: Xenopus laevis oocytes injected with cRNA
T2 sequence (Q63226 24-1007 D542Y/Y543Q/S544G/A654T): T1 sequence (Q63226 24-1007 Y543Q/A654T) with D519Y, S521G
Text: as §1, §2

## N[C@H](CO)C(=O)O [D-serine]
GluD2-Lc(Y543Q)
  D-serine efficacy Mean ± SEM: 36% and 36.2 ± 0.6%
GluD2-Lc-(HS1)GluN1
  D-serine efficacy Mean ± SEM: 29% and 29.1 ± 1.1%
